Assay results published in patent US20140377403A1, “METHOD FOR EVALUATING FLAVOR-IMPROVING AGENT” (T. HASEGAWA CO., LTD., priority 2011, published 2014).

Key:
[1] = test system: subjects; test: Sensory evaluation of strength of taste of sample solutions by subjects; type: in vivo, human; details: for strength of sensory sweetness: subjects who showed a change in salivary gland response in Example 2
Description: Each subject is held in a resting state, keeps water in the mouth such that the water spreads throughout the mouth for 30 seconds, then swallows the water, and then is held in a resting state for 60 seconds. Subsequently, the subject keeps a sample in the mouth to carefully taste the sample in the mouth for 30 seconds, then swallows the sample, and then is held in a resting state for 60 seconds again. Subsequently, the subject keeps water in the mouth again such that the water spreads throughout the mouth for 30 seconds, then swallows the water, and then is held in a resting state for 60 seconds. Subsequently, the subject keeps another sample in the mouth to carefully taste the sample in the mouth for 30 seconds, then swallows the sample, and then is held in a resting state for 60 seconds again. Thus, drinking of water and drinking of a sample are alternately repeated (FIG. 2). A sample can be evaluated at about four or five different concentrations in each experiment. […] Samples at previously selected four or five different concentrations are sequentially evaluated by the above-described procedure. During the evaluation of the sample, including the times of drinking and resting, the blood flow is measured, and the change therein is recorded. In addition, sensory evaluation is performed during the tasting of the sample in the mouth for 30 seconds. After completion of the evaluation at a series of four or five concentrations, the strength of flavor of the sample is concluded lastly to fill the sensory evaluation sheet (FIG. 3).
The sensory evaluation was performed in accordance with the evaluation questionnaire shown in FIG. 3 for the strength of taste as 0: tasteless, 3: weak, 6: moderate, 9: strong, and 12: very strong.
The samples of four different concentrations were subjected to sensory evaluation from a lower concentration of ethylmaltol to a higher concentration sequentially in accordance with the time schedule shown in FIG. 2 as in Example 1.

[2] = test system: salivary gland; test: Salivary gland response: change in blood flow (signal strength) at a periphery of the temple of the forehead, measured with an optical topography system; type: in vivo, human
Description: Each subject is held in a resting state, keeps water in the mouth such that the water spreads throughout the mouth for 30 seconds, then swallows the water, and then is held in a resting state for 60 seconds. Subsequently, the subject keeps a sample in the mouth to carefully taste the sample in the mouth for 30 seconds, then swallows the sample, and then is held in a resting state for 60 seconds again. Subsequently, the subject keeps water in the mouth again such that the water spreads throughout the mouth for 30 seconds, then swallows the water, and then is held in a resting state for 60 seconds. Subsequently, the subject keeps another sample in the mouth to carefully taste the sample in the mouth for 30 seconds, then swallows the sample, and then is held in a resting state for 60 seconds again. Thus, drinking of water and drinking of a sample are alternately repeated (FIG. 2). A sample can be evaluated at about four or five different concentrations in each experiment. […] Samples at previously selected four or five different concentrations are sequentially evaluated by the above-described procedure. During the evaluation of the sample, including the times of drinking and resting, the blood flow is measured, and the change therein is recorded. In addition, sensory evaluation is performed during the tasting of the sample in the mouth for 30 seconds. After completion of the evaluation at a series of four or five concentrations, the strength of flavor of the sample is concluded lastly to fill the sensory evaluation sheet (FIG. 3). When a sample is drunk in accordance with the above-described procedure, the blood flow at a periphery of the temple of the forehead gradually increases after putting the sample into the mouth, and the signal strength reaches the maximum within about 5 to 30 seconds. Subsequently, the signal strength gradually decreases and reaches the original level within about 60 seconds after putting the sample into the mouth. Accordingly, a value obtained by subtracting the “minimum” blood flow within about 15 seconds after the moment of putting a sample into the mouth from the “maximum” blood flow during from about 5 to 30 seconds after putting the sample into the mouth at a specific site, i.e., the response strength of a change in blood flow, is defined as a change in signal strength at the periphery of the temple of the forehead. […] A probe (FIG. 1) having a large number of sensors connected to an optical topography system body was set to the head of each subject, and then each sample was given to the subjects sequentially, followed by measurement. In accordance with the time schedule shown in FIG. 2, after resting, water was first given, and then a sample was given to aggressively evaluate the flavor. The order of drinking aqueous solutions of one kind of a taste substance given to the subjects was from a lower concentration to a higher concentration sequentially. (1) FIG. 4 is a graph illustrating the amount of typical change in oxygenated hemoglobin with time when water was put in the mouth and drunk and then a sample was put in the mouth and drunk, measured with an optical topography system at a periphery of the temple of the forehead (channel 52). […] The response strength was determined by that “when the time at which a sample was drunk is defined as a time of 0 second, (the maximum blood flow within 5 to 30 seconds)−(the minimum blood flow within 0 to 15 seconds)”.

[3] = 0, 1, 5, 10 ppm added to 4% aqueous sugar solution

Q: `OCCc1ccccc1` [2-phenylethyl alcohol] was tested. Which “strength of sensory sweetness” value [1, 3] did it give?
A: No increase

Q: With `CC(C)=CCCC(C)=CC=O` [citral] as the compound, how does the “strength of sensory acidity” value ([1]; 0, 1, 5, 10 ppm added to 0.1% aqueous citric acid solution, subjects showing a change in salivary gland response to a known flavor-improving agent) read?
A: increased with the concentration

Q: And the “strength of sensory sweetness” value [1, 3]?
A: No increase

Q: And the “response measured at the periphery of the temple of the forehead compared with 0.1% aqueous citric acid solution alone” value ([2]; 0, 1, 5, 10 ppm added to 0.1% aqueous citric acid solution, subjects showing a change in salivary gland response to a known flavor-improving agent, FIG. 10)?
A: enhanced

Q: What does the source list for `CCc1occc(=O)c1O` [ethylmaltol, reference compound]?
A: strength of sensual sweetness ([1]; 0, 1, 5, 10 ppm added to 4% aqueous sugar solution, eight arbitrarily selected subjects): increased with the amount of ethylmaltol; signal strength compared with 4% aqueous sugar solution alone ([2]; 0, 1, 5, 10 ppm added to 4% aqueous sugar solution, eight arbitrarily selected subjects, FIGS. 6 and 7): An enhancement in signal strength by addition of ethylmaltol was confirmed in six subjects

Q: How did the “strength of sensory sweetness” value [1, 3] turn out when `COc1ccc(C=CC=O)cc1` [p-methoxycinnamaldehyde] was run?
A: increased with the concentration

Q: What about the “response measured at the periphery of the temple of the forehead compared with 4% aqueous sugar solution alone” value ([2]; 0, 1, 5, 10 ppm added to 4% aqueous sugar solution, subjects who showed a change in salivary gland response in Example 2, FIGS. 8 and 9) of the same compound?
A: enhanced

Q: For `OC[C@H]1O[C@@](CO)(O[C@H]2O[C@H](CO)[C@@H](O)[C@H](O)[C@H]2O)[C@@H](O)[C@@H]1O` [sugar], which “response strength measured at a periphery of the temple of the forehead, compared with water” value ([2]; aqueous sugar solution 0 to 8%, eight arbitrarily selected subjects) is on record?
A: larger than that to water in all subjects

Q: And the “dependence of response strength on sample concentration and sweetness strength” value ([2]; sugar concentration range 0 to 8%, eight subjects)?
A: an enhancement of the response strength depending on the sample concentration and the sweetness strength was observed
